Data from patent US20210270852A1, “Methods of Detecting Neuroaxonal Dystrophy Disorders Associated with Vitamin E Deficiency and Uses Thereof” (The Regents of the University of California, priority 2018, published 2021).

Tests used:
[1] = Initial trials: detected range of plasma vitamin E metabolites (LC-MS); format: in vivo, horse
Description: (§1) Analytes were simultaneously quantified via ultra-performance liquid chromatography-tandem mass spectrometry (LC-MS). LC-MS analysis was carried out using a Bruker EVOQ LC-TQ Mass Spectrometer coupled with a Bruker Advance HPLC system (Bruker Corp, Freemont, Calif., USA). Mass spectral data for α- and γ-tocopherols and α- and γ-tocotrienols were acquired in the positive ion electrospray ionization (ESI) mode with the following retention times (RT) and scan events: γ-tocotrienol—RT 11.65 min, MRM 411.0>151.0 (CE 19.0V), α-tocotrienol—RT 12.0 min, MRM 425.1>165.1 (CE 20.0V), γ-tocopherol—RT 13.3 min, MRM 417.2>151.0 (CE 25.0V), 5-methyl-D3,7-methyl-D3 (TD6)—RT 13.8 min, MRM 437.4>171.0 (CE 27.0V), and α-tocopherol—RT 13.8 min, MRM 431.2>165.0 (CE 25.0V). Mass spectral data for α- and γ-CEHC and α-CMBHC were acquired in the negative ion ESI mode with the following retention times (RT) and scan events: α-CMBHC—RT 7.45 min, MRM 319.1>150.1 (CE 22.0V), α-CEHC—RT 5.70 min, MRM 277.0>233.1 (CE 14.0V), and γ-CEHC—RT 5.30 min, MRM 263.1>219.1 (CE13.0V). Quantification was carried out using a 10-point calibration curve covering the range from 0.1 ng/mL to 5,000 ng/mL and linear regression. Each level of calibration standard contained the internal standard TD6 at 100 ng/mL and CUDA at 2 ng/mL, matching their final concentrations in the analysis samples.
The limit of detection (ng/mL) and detected range (ng/mL), respectively, for each plasma vitamin E metabolite measured in these initial trials were as follows: α-TOH (0.1; 500-1000), γ-TOH (0.2; 10-15), α-tocotrienol (0.2; 0.2-0.6), γ-tocotrienol (0.2; 5-10), α-CMBHC (<0.05; 0.1-0.4), γ-CEHC (<0.05; 0.2-0.6), and α-CEHC (<0.05; 0.1-0.2).

[2] = Reference values of tocopherols, tocotrienols and metabolites in healthy grazing Thoroughbred horses (LC-MS); format: in vivo, horse
Description: (§2) In particular, the levels of a panel of tocopherols and tocopherol metabolites were assessed by liquid chromatography-mass spectrometry (LC-MS) in samples obtained from eNAD affected horses and matched healthy controls. Reference ranges of α-TOH, γ-TOH, α-TOT, γ-TOT, α-CEHC, γ-CEHC, and α-CMBHC were determined from serum, plasma and urine samples obtained from 16 healthy adult Thoroughbred horses on pasture. Next a supplementation trial was performed employing samples from eNAD-affected horses and neurologically normal age and sex-matched controls. Levels were assessed at baseline and after administration of bioavailable RRR-alpha-tocopherol according to the sample collection schedule described (see e.g., FIG. 2).
as §1

[3] = Supplementation trial: serum levels in eNAD-affected and control horses at baseline and after bioavailable RRR-alpha-tocopherol (LC-MS); format: in vivo, horse
Description: This example describes investigations into the role of metabolism of α-TOH in horses affected with eNAD/EDM. Accordingly, the rate of α-TOH and γ-TOH metabolism was determined through the measurement of CEHCs in healthy and eNAD-affected horses following α-TOH supplementation.
as §2, §1
Simultaneous quantification of α-TOH, γ-TOH, α-tocotrienol, γ-tocotrienol, α-CEHC, γ-CEHC, and α-CMBHC has not been previously performed in the horse. Data was Log-transformed. Correspondence between sample types (e.g., plasma vs. serum) was evaluated and statistical testing by Mixed-model ANOVA was performed (fixed variables=disease, time; randomized variable=horse; 2-way interactions; p<0.05).

[4] = earlier study; cited from earlier work
[5] = serum, healthy grazing TBs, tocotrienols

Q: For `Cc1c(C)c2c(c(C)c1O)CCC(C)(CCC(=O)O)O2` (stereo not drawn) [α-CEHC, alpha-carboxyethyl-hydroxychroman], which “detected range of plasma vitamin E metabolite” value (shortened to “detected range”) ([1]; in vivo) is on record?
A: 0.1 to 0.2 ng/mL

Q: And the “mean value for healthy grazing TBs” value ([2]; in vivo)?
A: 0.33±0.12

Q: What about the “median value for healthy grazing TBs” value ([2]; in vivo) of the same molecule?
A: 0.31

Q: And the “range of values for healthy grazing TBs” value ([2]; in vivo)?
A: 0.18-0.67

Q: For alpha-tocotrienol [α-TOT], which “detected range” value ([1]; in vivo) is on record?
A: 0.2 to 0.6 ng/mL

Q: What about the “difference in serum tocotrienol levels with time or disease” value ([3]; in vivo) of the same molecule?
A: no significant difference

Q: What about the “mean value in healthy grazing TBs” value ([2]; in vivo) of the same molecule?
A: 0.31 ± 0.36 ng/mL

Q: What about the “median value in healthy grazing TBs” value ([2]; in vivo) of the same molecule?
A: 0.15 ng/mL

Q: What about the “range of values in healthy grazing TBs” value ([2]; in vivo) of the same molecule?
A: 0.004 to 1 ng/mL

Q: What does the source list for `CC(C)=CCC/C(C)=C/CC/C(C)=C/CC[C@]1(C)CCc2cc(O)c(C)c(C)c2O1` [γ-TOT, gamma-tocotrienol]?
A: detected range of plasma vitamin E metabolite ([1]; plasma, initial trials): 5 to 10 ng/mL; difference in serum tocotrienol levels with time or disease ([3]; serum, eNAD vs control horses, over time): no significant difference; mean value in healthy grazing TBs [2, 5]: 0.13 ± 0.36 ng/mL; median value in healthy grazing TBs [2, 5]: 0.02 ng/mL; range of values in healthy grazing TBs [2, 5]: 0.02 to 1.79 ng/mL

Q: Which results are given for `Cc1c(C)c2c(c(C)c1O)CCC(C)(CCCC(C)C(=O)O)O2` (stereo not drawn) [α-CMBHC, 2-(4-Carboxy-4-methylbutyl)-6-hydroxy-2,5,7,8-tetramethylchroman]?
A: detected range of plasma vitamin E metabolite ([1]; horse, in vivo): 0.1 to 0.4 ng/mL; Serum α-CMBHC (median, range) ([3]; horse, in vivo, 56 day): 0.32 (0.12-0.40) ng/mL; concentration at 56 day ([3]; horse, in vivo, Serum α-CMBHC (median, range)): 0.28 ng/mL; mean value for healthy grazing TBs ([2]; Thoroughbred, horse, in vivo): 0.72±0.37; median value for healthy grazing TBs ([2]; Thoroughbred, horse, in vivo): 0.6; range of values for healthy grazing TBs ([2]; Thoroughbred, horse, in vivo): 0.32-1.71

Q: For `Cc1c(O)cc2c(c1C)OC(C)(CCC(=O)O)CC2` (stereo not shown) [γ-CEHC, gamma-carboxyethyl-hydroxychroman], which “detected range” value ([1]; in vivo) is on record?
A: 0.2 to 0.6 ng/mL

Q: What about the “mean value for healthy grazing TBs” value ([2]; in vivo) of the same molecule?
A: 0.43±0.18

Q: And the “median value for healthy grazing TBs” value ([2]; in vivo)?
A: 0.38

Q: And the “range of values for healthy grazing TBs” value ([2]; in vivo)?
A: 0.26-0.89

Q: Which results are given for `Cc1c(O)cc2c(c1C)O[C@](C)(CCC[C@H](C)CCC[C@H](C)CCCC(C)C)CC2` [γ-TOH, gamma-tocopherol]?
A: detected range of plasma vitamin E metabolite ([1]; horse, in vivo): 10 to 15 ng/mL; mean value for healthy grazing TBs ([2]; Thoroughbred, horse, in vivo): 27.1±9.82; median value for healthy grazing TBs ([2]; Thoroughbred, horse, in vivo): 25.6; range of values for healthy grazing TBs ([2]; Thoroughbred, horse, in vivo): 10.3-44.7

Q: For `Cc1c(C)c2c(c(C)c1O)CC[C@@](C)(CCC[C@H](C)CCC[C@H](C)CCCC(C)C)O2` [α-TOH, alpha-tocopherol, reference compound], which “detected range” value ([1]; in vivo) is on record?
A: 500 to 1000 ng/mL

Q: And the “rate of α-TOH metabolism in eNAD horses vs control horses” value ([3]; in vivo)?
A: faster rates than control horses

Q: What about the “α-TOH absorption indices, eNAD-affected vs unaffected horses” value [4] of the same molecule?
A: no significant differences

Q: And the “mean value for healthy grazing TBs” value ([2]; in vivo)?
A: 4292±892

Q: What about the “median value for healthy grazing TBs” value ([2]; in vivo) of the same molecule?
A: 4348

Q: What about the “range of values for healthy grazing TBs” value ([2]; in vivo) of the same molecule?
A: 2855-6299
